Here are results for six molecules from publication PMC10739838, “Limited high-throughput screening compatibility of the phenuivirus cap-binding domain” (Scientific Reports, 2023).

“And” between values parts separate entries of the source, which are not always exact repeats. Equal entries are not always repeated. Where two headings read alike, the source gives them in different places.

Experiment [1] deals with T1, SFTSV CBD (Dabie bandavirus, UniProt I0DF35). Type of experiment: binding.
Experiment [2] addresses T1, SFTSV CBD. Type of experiment: binding. This is another data set of the same source.
In a further experiment the target is human eIF4E (Homo sapiens, UniProt P06730). Type of experiment: binding.
Sequence of human eIF4E (P06730 whole entry): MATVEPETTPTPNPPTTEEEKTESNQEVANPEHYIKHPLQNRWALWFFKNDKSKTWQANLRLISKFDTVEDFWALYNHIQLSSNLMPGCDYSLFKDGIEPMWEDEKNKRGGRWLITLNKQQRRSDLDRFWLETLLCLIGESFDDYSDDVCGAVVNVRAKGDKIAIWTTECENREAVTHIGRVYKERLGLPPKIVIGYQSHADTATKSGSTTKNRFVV
Experiment [3] deals with T1, SFTSV CBD. The following applies: cited from earlier work.
Experiment [4] deals with T2, RVFV CBD (Rift valley fever virus, UniProt P27316). The following applies: cited from earlier work.
T2 sequence (P27316 1706-1822 limits assumed): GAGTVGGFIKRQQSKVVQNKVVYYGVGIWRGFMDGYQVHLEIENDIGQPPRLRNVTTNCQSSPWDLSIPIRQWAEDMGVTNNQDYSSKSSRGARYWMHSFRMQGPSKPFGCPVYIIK
Experiment [5] concerns the target T1, SFTSV CBD. Type of experiment: binding. The source holds these as a separate data set.
Experiment [6] addresses T1, SFTSV CBD. The following applies: cited from earlier work. This is another data set of the same source.
The next experiment concerns the target PB2 CBD (Influenza A virus, UniProt P31345).
Experiment [7] concerns the target T1, SFTSV CBD. The class given is binding. This is another data set of the same source.
The target in experiment [8] is T2, RVFV CBD. Type of experiment: binding.

T1 sequence (I0DF35 1695-1810 limits assumed): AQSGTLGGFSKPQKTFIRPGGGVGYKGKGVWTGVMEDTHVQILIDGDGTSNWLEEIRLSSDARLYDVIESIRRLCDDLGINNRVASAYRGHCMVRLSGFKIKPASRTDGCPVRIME
Sequence of PB2 CBD (P31345 318-483 limits assumed): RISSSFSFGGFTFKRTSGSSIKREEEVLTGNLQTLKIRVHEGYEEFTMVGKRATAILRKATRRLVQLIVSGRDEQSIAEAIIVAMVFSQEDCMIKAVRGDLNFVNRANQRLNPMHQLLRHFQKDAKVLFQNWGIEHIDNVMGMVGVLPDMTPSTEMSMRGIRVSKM

On to `Nc1ncnc2c1ncn2[C@@H]1O[C@H](COP(=O)(O)OP(=O)(O)OP(=O)(O)O)[C@@H](O)[C@H]1O` [ATP], for which the affinity at SFTSV CBD [1], expressed as Kd, was 20000 µM.

Consider `CC[N+]1=C(/C=C/C=C/C=C2/N(CCCCCC(=O)NCCNC(=O)O[C@@H]3[C@H](O)[C@@H](COP(=O)(O)OP(=O)(O)OP(=O)([O-])O)O[C@H]3n3c[n+](C)c4c(=O)[nH]c(N)nc43)c3ccc(S(=O)(=O)O)cc3C2(C)C)C(C)(C)c2cc(S(=O)(=O)[O-])ccc21` [EDA-m^7GTP-Cy5], for which the dissociation constant Kd was 55 µM and 32 µM and 36 µM at SFTSV CBD [2]; 0.036 µM and 0.033 µM and 0.028 µM on human eIF4E.

Take `Nc1nc2c(ncn2[C@@H]2O[C@H](COP(=O)(O)OP(=O)(O)OP(=O)(O)O)[C@@H](O)[C@H]2O)c(=O)[nH]1` [GTP]: the “Effect on thermal stability of the protein” value (shortened to “Effect on thermal stability”) on SFTSV CBD [3] and on RVFV CBD [4] was “not” each time. For the same molecule, the “SPR signal on injection of increasing concentrations” value at SFTSV CBD [5] is “did not result in a dose-dependent signal increase”. On SFTSV CBD [1], binding was characterised by a dissociation constant (Kd) of 20000 µM.

Consider `CC[N+]1=C(/C=C/C=C/C=C2/N(CCCCCC(=O)NCCOCCOCCOCCOCCC(=O)Nc3ccc(OP(=O)([O-])OP(=O)(O)OP(=O)(O)OC[C@H]4O[C@@H](n5c[n+](C)c6c(=O)[nH]c(N)nc65)[C@H](O)[C@@H]4O)cc3)c3ccc(S(=O)(=O)O)cc3C2(C)C)C(C)(C)c2cc(S(=O)(=O)[O-])ccc21` [m^7GTP-γ-aminophenyl-PEG4-Cy5], for which the Kd at SFTSV CBD [2] is 106 µM.

Turning to `Cn1c[n+]([C@@H]2O[C@H](COP(=O)([O-])OP(=O)(O)OP(=O)(O)O)[C@@H](O)[C@H]2O)c2nc(N)[nH]c(=O)c21` [m^7GTP], the “Effect on thermal stability” value on SFTSV CBD [3] and on RVFV CBD [4] was “higher thermal stability” throughout. Moreover, the Kd is 138 µM on SFTSV CBD [6]; approximately 1000 µM at SFTSV CBD [5]; ~6000 µM and 6100 µM and 10700 µM at SFTSV CBD [1]; 2.8 µM on PB2 CBD.

As to `O=C(O)[C@H]1C2CCC(CC2)[C@@H]1Nc1nc(-c2c[nH]c3ncc(F)cc23)ncc1F` [pimodivir], the “Effect on thermal stability” value at SFTSV CBD [7] and at RVFV CBD [8] was “destabilization of the protein” throughout.
